Four compounds from patent US12241114B2, “Biophysical platform for drug development based on energy landscape” (BRANDEIS UNIVERSITY, priority 2014, dated 2025) can be followed below.

The target in assay [1] is T1, unphosphorylated Aurora A (Homo sapiens, UniProt O14965).
T1 sequence (O14965 122-403): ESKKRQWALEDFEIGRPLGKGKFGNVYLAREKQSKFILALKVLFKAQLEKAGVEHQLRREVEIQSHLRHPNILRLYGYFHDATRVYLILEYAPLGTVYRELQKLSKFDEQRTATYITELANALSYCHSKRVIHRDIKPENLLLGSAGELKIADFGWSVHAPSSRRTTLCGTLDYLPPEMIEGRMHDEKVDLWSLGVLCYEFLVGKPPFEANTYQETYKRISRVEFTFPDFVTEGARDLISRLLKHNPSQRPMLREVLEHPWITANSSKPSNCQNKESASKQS
The experiment in a line: Stopped-flow tryptophan fluorescence binding and dissociation kinetics on unphosphorylated Aurora A. How it is done:
The stopped-flow instrument is a SX20 series from AppliedPhotophysics.
In the following equations, K1, K2 and K3 equal to:
[formula] Error bars calculations of the dissociation constant parameter (calculated from the kinetics) are calculated using classical error propagation equations. Aurora A Wild-Type Binding to MantATP

Assay [2] has as its target T2, Y199H modern Aurora A (Homo sapiens, UniProt O14965, T288V/Y199H).
T2 sequence (O14965 122-403 Y199H/T288V): T1 sequence (O14965 122-403) with Y78H, T167V
The experiment in a line: Isothermal titration calorimetry of TPX2 binding to Y199H Aurora A. The following applies: Y199H versus modern Aurora A. How it is done: FIGS. 33A-33C are plots and schematics showing Y199 is an Aurora A hotspot important in TPX2 binding.
All titrations were carried out using Nano ITC (TA instruments) and analyzed via the NanoAnalyze software using the independent fit model. Injectant was added in […] volume, every 180 s, with a constant stirring speed at 350 rpm and at 25° C. Prior to ITC titration, both protein and peptide were dialyzed/resuspended in 20 mM TrisHCl, 200 mM NaCl, 10% (v/v) glycerol, 1 mM TCEP, pH 7.50.

Assay [3] addresses T3, Aurora A wild-type (Homo sapiens, UniProt O14965).
T3 sequence (O14965 122-403): T1 sequence (O14965 122-403)
The experiment in a line: FRET stopped-flow kinetics of MantATP binding to Aurora A. The following applies: 10° C., double exponential. How it is done: FRET using intrinsic tryptophan fluorescence is used to monitor MantATP binding kinetics to Aurora A at 10° C. […] In the release of MantATP experiment or koff, 10 μM/10 μM Aurora A/MantATP complex were diluted with buffer (ratio 1:10). A significant decrease in the fluorescence intensity of Aurora A (excitation at 295 nm, emission cut-off at 395 nm) can be seen due to the MantATP release.

Residue numbers refer to the chain shown, from its start.

In the case of `CO[C@@H](C(=O)N1Cc2n[nH]c(NC(=O)c3ccc(N4CCN(C)CC4)cc3)c2C1)c1ccccc1` [Danusertib], in assay [1], the “tighter binding from the conformational change after drug binding” value is recorded as “three orders of magnitude” and the “weakening of overall affinity by the DFG-in/-out equilibrium” value was 20%. Further, the dissociation kinetics result in assay [1] (25° C., after 30-fold dilution of the complex) is “slow, taking hours to be released”. In addition, the “Keq of the induced fit step” value in assay [1] (25° C., global fit) was 5×10^−4.

“modern TPX2: modern-day TPX2 protein, allosteric activator of Aurora A, residues 1-45 (MSQVKSSYSYDAPSDFINFSSLDDEGDTQNIDSWFEEKANLENKL; UniProt Q9ULW0 1-45, looked up, fragment)”: the “weakening of binding by Y199H mutation of Aurora A” value in assay [2] was “approximately 20 fold”.

In the case of MantATP, the “plateau of second observed rate constant” value in assay [3] is “around 20 s^−1”.

For the compound `Cc1ccc(NC(=O)c2ccc(CN3CCN(C)CC3)cc2)cc1Nc1nccc(-c2cccnc2)n1` [Gleevec], the “apparent rate constant of dissociation” value in assay [1] (10° C., after 10-fold dilution of the complex) is 50 s⁻¹. In addition, in assay [1] (Gleevec versus Danusertib), the “observed off rate, times faster than the Danusertib off rate” value was 10^6-10^7.
